The values below are quoted from earlier work in US9320798B2, “Lipid delivery formulations” (Dicerna Pharmaceuticals, Inc., priority 2010, dated 2016).

The series concerns TLR4. The settings on record: Numata et al. PNAS USA 107: 320-325; Abate et al., J Lipid Res 51: 334-344.

SMILES strings stand for the structures.

As for `CCCCCCCC/C=C\CCCCCCCC(=O)O[C@H](COC(=O)CCCCCCCCCCCCCCC)COP(=O)(O)OCC(O)CO` (some centres unmarked) [POPG, palmitoyl-oleoyl-phosphatidylglycerol], the TLR4 activation entry is given as “capable of disrupting TLR4 activation”.

`CCCCCCCCCCCCCCCC(=O)OC[C@H](COP(=O)([O-])OCC[N+](C)(C)C)OC(=O)CCCCCCCCCCCCCCC` [DPPC, dipalmitoylphosphatidylcholine]: the TLR4 activation entry is “capable of disrupting TLR4 activation”.
